Article PMC3156476 (ACS medicinal chemistry letters, 2011)

Tests used:
hA1AR [1] = target: T1, hA1AR (Homo sapiens, UniProt P30542); details: read-out: Affinity Ki, A1; CHO cells expressing hA1AR; ref [6], [7], and [12]; cited from earlier work
T1 sequence (P30542 1-326): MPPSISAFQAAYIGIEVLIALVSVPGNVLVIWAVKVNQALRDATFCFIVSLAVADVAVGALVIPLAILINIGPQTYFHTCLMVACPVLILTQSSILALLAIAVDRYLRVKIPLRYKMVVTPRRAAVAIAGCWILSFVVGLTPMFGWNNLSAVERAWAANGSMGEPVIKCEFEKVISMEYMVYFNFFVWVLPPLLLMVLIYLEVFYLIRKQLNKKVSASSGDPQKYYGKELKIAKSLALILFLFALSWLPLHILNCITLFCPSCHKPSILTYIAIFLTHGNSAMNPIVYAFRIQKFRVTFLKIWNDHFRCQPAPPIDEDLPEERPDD

hA3AR = target: T2, hA3AR (Homo sapiens, UniProt P0DMS8); details: read-out: Affinity Ki, A3; CHO cells expressing hA3AR; ref [6], [7], and [12]; cited from earlier work
T2 sequence (P0DMS8 1-318): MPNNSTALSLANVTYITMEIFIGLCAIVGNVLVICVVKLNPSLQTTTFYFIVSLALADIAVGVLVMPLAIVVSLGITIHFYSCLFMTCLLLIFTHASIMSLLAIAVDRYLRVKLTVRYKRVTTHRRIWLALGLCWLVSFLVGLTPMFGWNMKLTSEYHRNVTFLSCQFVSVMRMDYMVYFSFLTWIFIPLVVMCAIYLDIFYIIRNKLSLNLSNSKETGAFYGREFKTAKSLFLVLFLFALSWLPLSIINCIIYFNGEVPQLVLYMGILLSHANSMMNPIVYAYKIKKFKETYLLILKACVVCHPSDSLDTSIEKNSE

hA1AR [2] = target: T1, hA1AR; assay type: cell-based; details: compared to standard full agonist CPA / NECA

SMILES | Ki (hA1AR [1]) | Ki (hA3AR) | Agonist character at A1AR in cyclic AMP assay (hA1AR [2])
CNC(=O)[C@@]12C[C@@H]1[C@@H](n1cnc3c(NCc4cccc(Cl)c4)nc(Cl)nc31)[C@H](O)[C@@H]2O [Compound 1, (1′S,2′R,3′S,4′R,5′S)-4′-{2-chloro-6-[(3-chlorophenylmethyl)amino]purin-9-yl}-1-(methylaminocarbonyl)bicyclo[3.1.0]hexane-2,3-diol] | 0.26 ± 0.06 µM |  | 
CNC(=O)[C@@]12C[C@@H]1[C@@H](n1cnc3c(NC4CCCC4)nc(Cl)nc31)[C@H](O)[C@@H]2O [Compound 2, (1′S,2′R,3′S,4′R,5′S)-4-(2-chloro-6-(cyclopentylamino)-9H-purin-9-yl)-2,3-dihydroxy-N-methylbicyclo[3.1.0]hexane-1-carboxamide] | 0.0183 ± 0.0063 µM | 0.0131 ± 0.0051 µM | 
O[C@@H]1[C@H](O)[C@H]2C[C@@H]2[C@H]1n1cnc2c(NCc3cccc(I)c3)nc(Cl)nc21 [Compound 5, (1′S,2′R,3′S,4′R,5′S)-4′-[2-chloro-6-(3-iodobenzylamino)-purine]-2′,3′-O-dihydroxybicyclo-[3.1.0]hexane] |  | 0.00144 ± 0.0006 µM | 
O[C@@H]1[C@H](O)[C@@H]2C[C@@H]2[C@H]1n1cnc2c(NC(C3CC3)C3CC3)nc(Cl)nc21 [Compound 21] |  |  | full agonism
CCNC(=O)[C@H]1O[C@@H](n2cnc3c(N)ncnc32)[C@H](O)[C@@H]1O [NECA, 5′-N-ethylcarboxamidoadenosine] |  |  | full agonist
